Consider 15 compounds from US20230124467A1, “COMPOUNDS AND METHODS FOR TREATING DISEASES AND/OR CONDITIONS CAUSED BY CORONAVIRUS” (priority 2020, published 2023).

Where a name gives a salt, the structure may show the parent alone. Read-outs that look alike come from different tables or passages of the source.

Holding throughout (format): cell-based
Data set [1] has as its system SARS-CoV-2. The experiment in a line: In vitro antiviral assay, development of cytopathic effects (CPE), Example 1. The conditions noted are these: for minimal effective concentration: ten-fold dilutions from 25 µM, read-out: Initial titre (Minimum concentration of drug inhibiting development of CPE).
Data set [2] has as its system VeroE6 cells. The experiment in a line: Evaluation of toxicity without virus (CPE and MTT assay), Example 1. The conditions noted are these: for Minimum Cytotoxicity: absence of virus, 72 h. On the procedure:
Serially diluted compounds (⅒ dilution) were added in each well in the absence of virus and incubated for 72 hours, and at end point the CPE was recorded as above. In parallel, a duplicate plate was set up for an MTT assay (Abcam Ab 211091) carried out following the manufacturer’s recommendations. Briefly, the culture medium was discarded and 50 µl of fresh medium and MTT reagent was added to each well, including a background (no cell) control. The plates were returned to the 37° C. incubator for 3 hours before the MTT/media solution was discarded and 150 µl of MTT solvent was added to each well. The plates were incubated for a further 15 minutes in foil on a hula mixer and the absorbance recorded at 590 nm. The percentage of cytotoxicity was calculated as follows: (DMSO control - sample)/DMSO control, after replicate values were averaged and corrected for the background control (no cell control).

Data set [3] has as its system SARS-CoV-2. The data set is described as follows: microbe, parasite or virus in culture.
[4] abbreviates: Severe acute respiratory syndrome coronavirus 2, Vero C1008, 20 PFU/well SARS-CoV-2, VeroE6 cells, 72 h.
[5] abbreviates: Severe acute respiratory syndrome coronavirus 2, Vero C1008, 72 h, 20 PFU/well SARS-CoV-2, VeroE6 cells, 72 h, narrower dilution steps in quadruplicate, read-out: Repeat TCID50 (TCID50 measurement for drugs showing greatest initial efficacy on titration).
[6] abbreviates: Severe acute respiratory syndrome coronavirus 2, Vero C1008, Table 3A, predetermined IC50 of individual drug, Vero-E6, 20 pfu/well, read-out: IC50 (drug used alone).
Where [7] appears, read: Severe acute respiratory syndrome coronavirus 2, Vero C1008, Vero-E6, 20 pfu/well, 72 h, read-out: IC50 measured when each drug used individually.
[8] abbreviates: Severe acute respiratory syndrome coronavirus 2, Vero C1008, 72 h, read-out: IC50 measured when each drug used individually.
[9] abbreviates: Severe acute respiratory syndrome coronavirus 2, Vero C1008, read-out: IC50 (drug used alone).

With `COC(=O)N[C@H](C(=O)N[C@@H](Cc1ccccc1)[C@@H](O)CN(Cc1ccc(-c2ccccn2)cc1)NC(=O)[C@@H](NC(=O)OC)C(C)(C)C)C(C)(C)C` [Atazanavir], the minimal effective concentration in data set [1] (setting [4]) was > 25 µM. In addition, the “Minimum Cytotoxicity” value in data set [2] is given as >25 µM.

Take `C[C@H]1[C@H](NC(=O)/C(=N\OC(C)(C)C(=O)O)c2csc(N)n2)C(=O)N1S(=O)(=O)O` [Aztreonam]: the minimal effective concentration in data set [1] (setting [4]) is > 25 µM. Also, the “Minimum Cytotoxicity” value in data set [2] is recorded as >25 µM.

Regarding `CC(C)c1nc(CN(C)C(=O)N[C@@H](CCN2CCOCC2)C(=O)N[C@H](CC[C@H](Cc2ccccc2)NC(=O)OCc2cncs2)Cc2ccccc2)cs1` [Cobicistat], the minimal effective concentration in data set [1] (setting [4]) was > 25 µM. Further, the “Minimum Cytotoxicity” value in data set [2] is on record as >25 µM.

As to `Nc1nc(F)nc2c1ncn2[C@@H]1O[C@H](COP(=O)(O)O)[C@@H](O)[C@@H]1O` [Fludarabine phosphate], the “Minimum Cytotoxicity” value in data set [2] stood at 25 µM. The “cytotoxicity in the MTT assay” value is “none” in data set [2] (at 2.5 µM) and “showed cytotoxicity” in data set [2] (at 25 µM).

As to `Nc1nc(=O)c2c([nH]1)NCC(CNc1ccc(C(=O)N[C@@H](CCC(=O)[O-])C(=O)[O-])cc1)N2C=O.[Ca+2]` (some centres unmarked) [Folinic acid calcium salt hydrate], in data set [1] (20 PFU/well SARS-CoV-2, VeroE6 cells, 72 h), the minimal effective concentration is >25 µM. For the same compound, the “Minimum Cytotoxicity” value in data set [2] is >25 µM.

Take `CCN(CCO)CCCC(C)Nc1ccnc2cc(Cl)ccc12` (centres unmarked) [Hydroxychloroquine]: the IC50 amounted to 2.9 µM in data set [1] (20 PFU/well SARS-CoV-2, VeroE6 cells, 72 h, narrower dilution steps in quadruplicate, read-out: Repeat TCID50 (TCID50 measurement for drugs showing greatest initial efficacy on titration)); 2 µM in data set [1] (setting [5]); 1.58 µM in data set [3] (setting [6]); 1.58 µM in data set [3] (setting [7]). The minimal effective concentration in data set [1] (setting [4]) worked out at 25 µM. Also, the “Minimum Cytotoxicity” value in data set [2] is 25 µM. Besides, the “cytotoxicity in the MTT assay” value was “none” in data set [2] (at 2.5 µM) and “showed cytotoxicity” in data set [2] (at 25 µM).

With `CC(C)(C)NC(=O)[C@@H]1CN(Cc2cccnc2)CCN1C[C@@H](O)C[C@@H](Cc1ccccc1)C(=O)N[C@H]1c2ccccc2C[C@H]1O` [Indinavir sulfate], the “Minimum Cytotoxicity” value in data set [2] was >25 µM.

Regarding `CS(=O)(=O)c1cccc(C[C@H](NC(=O)c2c(Cl)cc3c(c2Cl)CCN(C(=O)c2ccc4ccoc4c2)C3)C(=O)O)c1` [Lifitegrast], in data set [1] (setting [4]), the minimal effective concentration is > 25 µM. In data set [2], the “Minimum Cytotoxicity” value was >25 µM.

As for `CCCNS(=O)(=O)Nc1ncnc(OCCOc2ncc(Br)cn2)c1-c1ccc(Br)cc1` [Macitentan], in data set [1] (setting [4]), the minimal effective concentration was > 25 µM. Besides, the “Minimum Cytotoxicity” value in data set [2] is on record as >25 µM.

Turning to `Cc1c(O)cccc1C(=O)N[C@@H](CSc1ccccc1)[C@H](O)CN1C[C@H]2CCCC[C@H]2C[C@H]1C(=O)NC(C)(C)C` [Nelfinavir mesylate], the IC50 in data set [1] (Severe acute respiratory syndrome coronavirus 2, Vero C1008, 72 h, read-out: Repeat TCID50 (TCID50 measurement for drugs showing greatest initial efficacy on titration), 20 PFU/well SARS-CoV-2, VeroE6 cells, 72 h, narrower dilution steps in quadruplicate) was 2.9 µM; in data set [1] (read-out: Repeat TCID50 (TCID50 measurement for drugs showing greatest initial efficacy on titration), 20 PFU/well SARS-CoV-2, VeroE6 cells, 72 h, narrower dilution steps in quadruplicate), 2 µM; in data set [3] (setting [8]), 0.39 µM; in data set [3] (setting [9]), 0.39 µM. The “Minimum Cytotoxicity” value in data set [2] is 25 µM. The “cytotoxicity in the MTT assay” value in data set [2] (at 2.5 µM) is on record as “none”; in data set [2] (at 25 µM), “showed cytotoxicity”.

As to `Cc1onc(-c2ccccc2)c1C(=O)N1CCN(c2ccc([N+](=O)[O-])cc2Cl)CC1` [Nucleozin], the minimal effective concentration in data set [1] (setting [4]) was > 25 µM. In addition, in data set [2], the “Minimum Cytotoxicity” value is on record as >25 µM.

Consider `CCC(CC)COC(=O)[C@H](C)N[P@](=O)(OC[C@H]1O[C@@](C#N)(c2ccc3c(N)ncnn23)[C@H](O)[C@@H]1O)Oc1ccccc1` [Remdesivir], for which the IC50 in data set [3] (setting [8]) and in data set [3] (setting [9]) was 1.56 µM in each case.

As to `Cc1cc(/C=C/C#N)cc(C)c1Nc1ccnc(Nc2ccc(C#N)cc2)n1` [Rilpivirine hydrochloride], the minimal effective concentration in data set [1] (setting [4]) is > 25 µM. In addition, in data set [2], the “Minimum Cytotoxicity” value was >25 µM.

On to `Cn1nnc(-c2ccc(-c3ccc(N4C[C@H](COP(=O)(O)O)OC4=O)cc3F)cn2)n1` [Tedizolid phosphate], for which the minimal effective concentration in data set [1] (setting [4]) was > 25 µM. In data set [2], the “Minimum Cytotoxicity” value is on record as >25 µM.

Consider `CCCc1nc(C)c2c(=O)[nH]c(-c3cc(S(=O)(=O)N4CCN(CC)CC4)ccc3OCC)nn12` [Vardenafil hydrochloride trihydrate, 2-[2-ethoxy-5-(4-ethylpiperazin-1-yl)sulfonylphenyl]-5-methyl-7-propyl-3H-imidazo[5,1-f][1,2,4]triazin-4-one], for which the IC50 was > 25 µM in data set [1] (setting [5]), 6.25 µM in data set [3] (setting [6]) and 6.25 µM in data set [3] (setting [7]). For the same compound, the minimal effective concentration in data set [1] (setting [4]) turned out to be 25 µM. Besides, the “Minimum Cytotoxicity” value in data set [2] is on record as >25 µM.
